For 13 molecules, MIC90 results are on record in ChEMBL document CHEMBL2062378, “Antimycobacterial activity: a facile three-component [3+2]-cycloaddition for the regioselective synthesis of highly functionalised dispiropyrrolidines” (Bioorg Med Chem Lett, 2012).

This assay concerns Mycobacterium tuberculosis. In words: Antimycobacterial activity against INH-resistant Mycobacterium tuberculosis by alamar blue broth microdilution assay. Type of assay: functional.

The structures appear in SMILES notation. Converted amounts (≈) assume the structure as drawn. Where only a bound is given, the exact number is not on record here.

Turning to `CN1CC(c2ccccc2)C2(Cc3ccccc3C2=O)C12C(=O)c1ccccc1C2=O` (stereo not drawn), the MIC90 was determined as 26.2 µM (≈ 10.7 µg/mL). For `CN1CC(c2cncc(-c3ccc(F)cc3)c2)C2(Cc3ccccc3C2=O)C12C(=O)c1ccccc1C2=O` (stereo not drawn), the MIC90 came out at 5.12 µM (≈ 2.57 µg/mL). Then `CN1CC(c2ccc(Cl)cc2)C2(Cc3ccccc3C2=O)C12C(=O)c1ccccc1C2=O` (stereo not drawn), with 24.2 µM (≈ 10.7 µg/mL). The molecule `CN1CC(c2ccc(Br)cc2)C2(Cc3ccccc3C2=O)C12C(=O)c1ccccc1C2=O` (stereo not drawn) showed an MIC90 of 21.4 µM (≈ 10.4 µg/mL). The MIC90 values of the last two molecules are within 1.5-fold of each other. With `CN1CC(c2ccc(C(=O)O)cc2)C2(Cc3ccccc3C2=O)C12C(=O)c1ccccc1C2=O` (stereo not drawn), the MIC90 came out at 18.3 µM (≈ 8.26 µg/mL).

`CN1CC(c2cccc([N+](=O)[O-])c2)C2(Cc3ccccc3C2=O)C12C(=O)c1ccccc1C2=O` (stereo not drawn) displayed an MIC90 of 16.8 µM (≈ 7.61 µg/mL). The MIC90 values of the last two molecules are within 1.5-fold of each other. Molecule `CN1CC(c2ccc(C(F)(F)F)cc2)C2(Cc3ccccc3C2=O)C12C(=O)c1ccccc1C2=O` (stereo not drawn) returned an MIC90 of 13.6 µM (≈ 6.48 µg/mL). The MIC90 values of the last two molecules are within 1.5-fold of each other. `CN1CC(c2ccc(OC(F)(F)F)cc2)C2(Cc3ccccc3C2=O)C12C(=O)c1ccccc1C2=O` (stereo not drawn) displayed an MIC90 of 12.2 µM (≈ 6 µg/mL).

`COc1ccc(C2CN(C)C3(C(=O)c4ccccc4C3=O)C23Cc2ccccc2C3=O)cc1` (stereo not drawn) returned an MIC90 of over 6.25 µM.

`CN1CC(c2cccc3c2OCO3)C2(Cc3ccccc3C2=O)C12C(=O)c1ccccc1C2=O` (stereo not drawn): the MIC90 was 32.4 µM (≈ 14.6 µg/mL). `CN(C)c1ccc(C2CN(C)C3(C(=O)c4ccccc4C3=O)C23Cc2ccccc2C3=O)cc1` (stereo not drawn) returned an MIC90 of 43.3 µM (≈ 19.5 µg/mL). The MIC90 values of the last two molecules are within 1.5-fold of each other.

In turn, `CN1CC(c2ccc(N3CCOCC3)cc2)C2(Cc3ccccc3C2=O)C12C(=O)c1ccccc1C2=O` (stereo not drawn) displayed an MIC90 of 27.2 µM (≈ 13.4 µg/mL). For the molecule `NNC(=O)c1ccncc1` [ISONIAZID], the MIC90 is 11.2 µM (≈ 1.54 µg/mL).

The term MIC90 denotes the lowest concentration that inhibits either 90% of growth or 90% of the strains tested, depending on the study. High values mean lower susceptibility, low ones higher susceptibility.
